Experimental data published in patent US5723465A, “Inhibitors for cell adhesion and cellular infiltration” (Kowa Co., Ltd., priority 1995, dated 1998).
Where two headings read alike, the source gives them in different places.

What was measured:
[1] = tested on: adhesion of U937 cells to human umbilical vein endothelial cells (HUVEC); test: Cell adhesion inhibitory effect: adhesion of U937 cells to IL-1β- or TNFα-stimulated HUVEC; type: cell-based; details: 0.75 h, 45 minutes adhesion at room temperature
Method: The test was performed with reference to a method described by Ross et al (J. Biol. Chem., 267, 8537-8543 (1992)). Briefly, endothelial cells derived from the human umbilical code vein (HUVEC) were cultured in a 48-well plate until they became confluent. Subsequently, IL-1β or TNFα was added. Five hours after the addition, U937 cells which are derived from human monocytes/histiocytes and FITC-labeled with PKH2 (Dainippon Seiyaku) were added to each well in an amount of 3×10^5 cells per well. After being allowed to stand for 45 minutes at room temperature, U937 cells which had not been adhered to were washed off, and the remaining cells were lysed using 1% Triton X-100. Fluorescent intensity was measured (Exi. 494 nm, Emi. 504 nm). The HUVEC cells were cultured in EGM-UV (Kurabo Industries Ltd.), and U937 cells were cultured in RPMI1640 plus 10% FCS. Each test drug (compound) was added to HUVEC simultaneously with the addition of IL-1β or TNFα, or to U937 cells 24 hours before the cell adhesion test, to thereby study the effect of the compound. The inhibitory activity was determined by the following equation: […]
(the number of drug-free U937 cells adhered to drug-free endothelial cells that have been stimulated with IL-1β or TNFα)--(the number of drug-free U937 cells adhered to drug-free endothelial cells that have not been stimulated with IL-1β or TNFα)=100%

[2] = tested on: infiltration of trachea by eosinocytes; test: Inhibition of eosinocyte infiltration in a guinea pig asthma model; type: in vivo, guinea pig (Hartley male); details: 6 successive days plus 2 hours after challenge, 24 h after, control 204.5 ± 15.3, blank 67.7 ± 7.2
Method: In accordance with a method described by Terashi (Allergy, 37, 980-991 (1988)), groups of Hartley male guinea pigs, each group consisting of 4-7 animals (body weight: about 300 g), were exposed to chicken egg albumin (10 mg/ml) by way of inhalation using a ultrasonic nebulizer for 10 minutes a day for successive 9 days, to thereby create a sensitized state of the animals. From the following day, test compound 2 was intraperitoneally administered to each animal for successive 6 days (10 or 30 mg/kg). On day 7, metopyrone (10 mg/kg) and chlorphenylamine (10 mg/kg) were intraperitoneally administered to each animal. Thirty minutes later, each animal was exposed to chicken egg albumin (10 mg/ml) for 10 minutes by way of inhalation. In addition, 2 hours thereafter, test compound 2 was intraperitoneally administered to each animal. Twenty-four hours later, each animal was exsanguinated to death, and its trachea was removed. The trachea was fixed with formalin and embedded in paraffin, so as to prepare thin slice samples. The samples were subjected to luna staining, and eosinocytes that infiltrated were counted.

[3] = tested on: lymphocyte infiltration (CD3 positive cells) in mouse contact dermatitis; test: Lymphocyte infiltration inhibitory action in mouse contact dermatitis; type: in vivo, mouse (ddy male); details: 6 successive days before induction, 24 h after picryl chloride; for Ear weight (difference in weight of both ears): control 4.9 ± 0.7; for Count of CD3 positive cells: control 10.8 ± 1.3
Method: In accordance with a method described by Asherson et al. (Immunology, 15, 405-416 (1968)), action of the compound on lymphocyte infiltration in mouse contact dermatitis was investigated. Groups of ddy male mice that had been sensitized with picryl chloride, each group consisting of 10 animals (body weight: 28-32 g), were provided for the test. Test compound 2 was intraperitoneally administered to each animal for successive 6 days before induction took place (1 or 10 mg/kg). A 1% solution of picryl chloride-olive oil (0.02 ml) was applied to an ear of each animal. Twenty-four hours later, both ears were punched (7 mm.phi.), to thereby compute the difference in weight. The ears were then embedded in paraffin, frozen, and cut in a vertical direction with respect to the ear face to prepare thin slices each having a thickness of 4 μm. CD3 positive cells were immunostained and counted.

[4] = tested on: leukocyte infiltration in rat carrageenin pleurisy; test: Leukocyte infiltration inhibitory action in rat carrageenin pleurisy; type: in vivo; details: 2 successive days, 16 h after carrageenin; for Count of infiltrated cells: control 2.37 ± 0.06; for Pleural fluid volume: control 3.3 ± 0.3
Method: In accordance with a method described by Kikuchi et al. (Japan J. Pharmacol., 39, 467-473 (1985)), action of the compound on leukocyte infiltration in rat carrageenin pleurisy was investigated. Groups of SD male […], each group consisting of 6 animals (7 weeks old), were provided for the test. Test compound 2 was intraperitoneally administered to each animal for successive 2 days (10 or 30 mg/kg). Two hours after the final administration, a 2% (w/v) carrageenin solution (0.1 ml) was intrathoracically administered. Sixteen hours later, each animal was exsanguinated to death, and pleural fluid was collected. The volume of the collected pleural fluid was measured, and cells that infiltrated and present in the pleural fluid were counted.

[5] = tested on: mouse type II collagen arthritis; test: Action on mouse type II collagen arthritis; type: in vivo, mouse (DBA/1 male); details: 30 mg/kg intraperitoneally once daily, 10 times
Method: The test was performed in accordance with a method described by Ranges et al. (J. Exp. Med., 162, 1105-1110 (1985)). To each of DBA/1 male mice (6-7 weeks old), 100 μg of type II collagen from bovine suspended in Freund's complete adjuvant was subcutaneously injected at the root of its tail. Twenty one days later, the mice was given a booster injection in a similar manner. The drug was intraperitoneally administered to each mouse once every day starting from 2 days prior to the booster injection until 7 days after the booster injection (a total of 10 times). The severity of arthritis was evaluated by measuring the thickness of the front foot pads. In addition, antibody titers (IgG+IgM) against type II collagen in serum were determined by ELISA.

[6] = IL-1β-stimulated HUVEC, read-out: Cell Adhesion (IC50), IL-1β Stimulation
[7] = TNFα-stimulated HUVEC, read-out: Cell Adhesion (IC50), TNFα Stimulation
[8] = 10 mg/kg intraperitoneally, p <0.05
[9] = 30 mg/kg intraperitoneally, p <0.01

`COc1ccc(/C=C/CCCN2CCN(CCC/C=C/c3ccc(OC)cc3)CC2)cc1` [compound 4] showed an IC50 [1, 6] of 11.1 µM and an IC50 [1, 7] of 9.4 µM.
`COc1cc(/C=C/CCCN2CCCN(CCC/C=C/c3cc(OC)c(OC)c(OC)c3)CC2)cc(OC)c1OC` [compound 2] gave an IC50 [1, 6] of 9 µM and an IC50 [1, 7] of 9.5 µM.
In the case of `COc1cc(/C=C/CCCN2CCCN(CCC/C=C/c3cc(OC)c(OC)c(OC)c3)CC2)cc(OC)c1OC` [Test Compound 2, N,N'-bis-((E)-5-(3,4,5-trimethoxyphenyl)-4-pentenyl)homopiperazine.2HCl], the “Infiltration of trachea by eosinocytes” value [2, 8] is reported as 171.0 ± 6.5 cells/mm, the “Infiltration of trachea by eosinocytes” value [2, 9] is reported as 122.2 ± 7.0 cells/mm and the “Ear weight (difference in weight of both ears)” value ([3]; 1 mg/kg intraperitoneally) is reported as 4.5 ± 0.8 mg/7 mm.phi. For the same compound, the “Count of CD3 positive cells” value ([3]; 1 mg/kg intraperitoneally, p <0.05) was 7.8 ± 0.4 cells/mm, the “Ear weight (difference in weight of both ears)” value [3, 8] was 2.9 ± 0.6 mg/7 mm.phi and the “Count of CD3 positive cells” value ([3]; 10 mg/kg intraperitoneally, p <0.01) was 4.2 ± 0.7 cells/mm. The “Count of infiltrated cells” value ([4]; 10 mg/kg intraperitoneally) was 1.97 ± 0.05 × 10^8, the Pleural fluid volume ([4]; 10 mg/kg intraperitoneally) was 2.5 ± 0.3 mL and the “Count of infiltrated cells” value [4, 9] was 1.68 ± 0.22 × 10^8. The Pleural fluid volume ([4]; 30 mg/kg intraperitoneally, p <0.05) was 2.5 ± 0.3 mL, the “Thickness of front foot pad, after 30 days” value ([5]; after 30 days, control 421.3 ± 13.1, blank 361.0 ± 4.2, p <0.05) was 384.8 ± 6.9 × 10^-2 mm and the “Antibody titer against collagen (IgG + IgM), after 33 days” value ([5]; serum, ELISA, after 33 days, control 1.00 ± 0.13, blank 0 ± 0.00, p <0.01) was 0.43 ± 0.10 percentage with respect to the.
For `COc1ccccc1/C=C/CN1CCN(C/C=C/c2ccccc2OC)CC1` [compound 3], the IC50 [1, 6] was 3.4 µM and the IC50 [1, 7] was 12.9 µM.
`COc1cc(/C=C\CCCN2CCCN(CCC/C=C\c3cc(OC)c(OC)c(OC)c3)CC2)cc(OC)c1OC` [compound 1] gave an IC50 [1, 6] of 9.7 µM and an IC50 [1, 7] of 8 µM.
